Data reported in the supplement of paper PMC11061612.

Legend:
Test in all cases: combination Emax (second highest fraction inhibited in the dose matrix, 72 h); higher = more inhibition; extreme values may be limits of the assay
[1] = tested on: OVMIU (Ovarian Carcinoma)
Summary of the method: (§1)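 Cell lines grown in DMEM/F12 or RPMI with 10% FBS were plated in 1536-well plates and held 24 hours at 37°C, 5% CO2 before 72 hours of exposure to two-drug dose matrices, with DMSO typically at 0.2%. CellTiter-Glo 2.0 luminescence gave viability, which was converted to inhibition. Vehicle wells were set to 0 and blank wells to 1. Combination Emax is the second-highest inhibition in the matrix, and Bliss excess is the observed combination effect minus the expected EA + EB − EA·EB, where EA and EB are the single-agent effects.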

[2] = tested on: MKN45 (Gastric Carcinoma)
Summary of the method: as §1

[3] = tested on: HEC-1 (Endometrial Carcinoma)
Summary of the method: as §1

[4] = tested on: VAL (B-Cell Non-Hodgkin's Lymphoma)
Summary of the method: as §1

SF539 (Glioblastoma) = tested on: SF539 (Glioblastoma)
Summary of the method: as §1

[5] = tested on: L-1236 (Hodgkin's Lymphoma)
Summary of the method: as §1

| Compound | combination Emax [1] | combination Emax [2] | combination Emax [3] | combination Emax [4] | combination Emax (SF539 (Glioblastoma)) | combination Emax [5] |
| --- | --- | --- | --- | --- | --- | --- |
| CN(C)CCCOc1ccc(-c2ccc3ncc4c(c3c2)n(C2CCOCC2)c(=O)n4C)cn1 [AZD0156] + C=CCn1c(=O)c2cnc(Nc3ccc(N4CCN(C)CC4)cc3)nc2n1-c1cccc(C(C)(C)O)n1 [AZD1775] (first compound max 1 µM, partner max 1 µM) | 0.519 | 0.701 | 0.0682 | 0.846 | 1 | 0.755 |
| CN(C)CCCOc1ccc(-c2ccc3ncc4c(c3c2)n(C2CCOCC2)c(=O)n4C)cn1 [AZD0156] + CCN(CCO)CCCOc1ccc2c(Nc3cc(CC(=O)Nc4cccc(F)c4)[nH]n3)ncnc2c1 [AZD2811] (first compound max 1 µM, 7x7, partner max 1 µM) | 0.144 | 0.342 | 0.0528 | 0.801 | 0.394 | 0.215 |
| CN(C)CCCOc1ccc(-c2ccc3ncc4c(c3c2)n(C2CCOCC2)c(=O)n4C)cn1 [AZD0156] + C[C@@H]1COCCN1C2=NC(=NC(=C2)C3(CC3)[S@](=N)(=O)C)C4=C5C=CNC5=NC=C4 [AZD6738] (first compound max 1 µM, 7x7, partner max 10 µM) | 0.396 | 0.791 | 0.363 | 0.911 | 0.929 | 0.634 |
| C=CCn1c(=O)c2cnc(Nc3ccc(N4CCN(C)CC4)cc3)nc2n1-c1cccc(C(C)(C)O)n1 [AZD1775] + C[C@@H]1COCCN1C2=NC(=NC(=C2)C3(CC3)[S@](=N)(=O)C)C4=C5C=CNC5=NC=C4 [AZD6738] (first compound max 1 µM, partner max 10 µM) | 0.731 | 0.787 | 0.638 | 0.881 | 1 | 0.782 |
| C=CCn1c(=O)c2cnc(Nc3ccc(N4CCN(C)CC4)cc3)nc2n1-c1cccc(C(C)(C)O)n1 [AZD1775] + O=C(c1cc(Cc2n[nH]c(=O)c3ccccc23)ccc1F)N1CCN(C(=O)C2CC2)CC1 [Olaparib] (first compound max 1 µM, partner max 10 µM) | 0.569 | 0.775 | 0.119 | 0.816 | 1 | 0.746 |
| CCN(CCO)CCCOc1ccc2c(Nc3cc(CC(=O)Nc4cccc(F)c4)[nH]n3)ncnc2c1 [AZD2811] + C=CCn1c(=O)c2cnc(Nc3ccc(N4CCN(C)CC4)cc3)nc2n1-c1cccc(C(C)(C)O)n1 [AZD1775] (first compound max 1 µM, partner max 1 µM) | 0.463 | 0.631 | 0.141 | 0.844 | 1 | 0.74 |
| CCN(CCO)CCCOc1ccc2c(Nc3cc(CC(=O)Nc4cccc(F)c4)[nH]n3)ncnc2c1 [AZD2811] + C[C@@H]1COCCN1C2=NC(=NC(=C2)C3(CC3)[S@](=N)(=O)C)C4=C5C=CNC5=NC=C4 [AZD6738] (first compound max 1 µM, 7x7, partner max 10 µM) | 0.457 | 0.732 | 0.212 | 0.877 | 0.955 | 0.595 |
| CCN(CCO)CCCOc1ccc2c(Nc3cc(CC(=O)Nc4cccc(F)c4)[nH]n3)ncnc2c1 [AZD2811] + O=C(c1cc(Cc2n[nH]c(=O)c3ccccc23)ccc1F)N1CCN(C(=O)C2CC2)CC1 [Olaparib] (first compound max 1 µM, 7x7, partner max 10 µM) | 0.295 | 0.28 | 0.0832 | 0.831 | 0.502 | 0.158 |
| CN(CCO)CC[C@H](CSc1ccccc1)Nc1ccc(S(=O)(=O)NC(=O)c2ccc(N3CCC([C@@H](O)c4ccccc4-c4ccc(Cl)cc4)CC3)cc2)cc1S(=O)(=O)C(F)(F)F [AZD4320] + C1CN(CCC1(C(=O)N[C@@H](CCO)C2=CC=C(C=C2)Cl)N)C3=NC=NC4=C3C=CN4 [Capivasertib] (first compound max 1 µM, 7x7, partner max 3 µM) | 0.876 | 0.456 | 0.295 | 1 | 0.461 | 0.965 |
| CN(CCO)CC[C@H](CSc1ccccc1)Nc1ccc(S(=O)(=O)NC(=O)c2ccc(N3CCC([C@@H](O)c4ccccc4-c4ccc(Cl)cc4)CC3)cc2)cc1S(=O)(=O)C(F)(F)F [AZD4320] + C=CCn1c(=O)c2cnc(Nc3ccc(N4CCN(C)CC4)cc3)nc2n1-c1cccc(C(C)(C)O)n1 [AZD1775] (first compound max 1 µM, partner max 1 µM) | 0.976 | 0.826 | 0.456 | 1 | 0.978 | 1 |
| CN(CCO)CC[C@H](CSc1ccccc1)Nc1ccc(S(=O)(=O)NC(=O)c2ccc(N3CCC([C@@H](O)c4ccccc4-c4ccc(Cl)cc4)CC3)cc2)cc1S(=O)(=O)C(F)(F)F [AZD4320] + CCN(CCO)CCCOc1ccc2c(Nc3cc(CC(=O)Nc4cccc(F)c4)[nH]n3)ncnc2c1 [AZD2811] (first compound max 1 µM, 7x7, partner max 1 µM) | 0.802 | 0.316 | 0.494 | 1 | 0.584 | 0.961 |
| CN(CCO)CC[C@H](CSc1ccccc1)Nc1ccc(S(=O)(=O)NC(=O)c2ccc(N3CCC([C@@H](O)c4ccccc4-c4ccc(Cl)cc4)CC3)cc2)cc1S(=O)(=O)C(F)(F)F [AZD4320] + CN(C)CCCOc1ccc(-c2ccc3ncc4c(c3c2)n(C2CCOCC2)c(=O)n4C)cn1 [AZD0156] (first compound max 1 µM, 7x7, partner max 1 µM) | 0.771 | 0.316 | 0.372 | 1 | 0.27 | 0.992 |
| CN(CCO)CC[C@H](CSc1ccccc1)Nc1ccc(S(=O)(=O)NC(=O)c2ccc(N3CCC([C@@H](O)c4ccccc4-c4ccc(Cl)cc4)CC3)cc2)cc1S(=O)(=O)C(F)(F)F [AZD4320] + C[C@@H]1COCCN1C2=NC(=NC(=C2)C3(CC3)[S@](=N)(=O)C)C4=C5C=CNC5=NC=C4 [AZD6738] (first compound max 1 µM, 7x7, partner max 10 µM) | 0.824 | 0.8 | 0.613 | 1 | 0.959 | 0.992 |
| CN(CCO)CC[C@H](CSc1ccccc1)Nc1ccc(S(=O)(=O)NC(=O)c2ccc(N3CCC([C@@H](O)c4ccccc4-c4ccc(Cl)cc4)CC3)cc2)cc1S(=O)(=O)C(F)(F)F [AZD4320] + C[C@@H](Nc1cc(F)cc(F)c1)c1cc(C(=O)N(C)C)cc2c(=O)cc(N3CCOCC3)oc12 [AZD8186] (first compound max 1 µM, 7x7, partner max 3 µM) | 0.534 | 0.345 | 0.392 | 1 | 0.373 | 0.981 |
| CN(CCO)CC[C@H](CSc1ccccc1)Nc1ccc(S(=O)(=O)NC(=O)c2ccc(N3CCC([C@@H](O)c4ccccc4-c4ccc(Cl)cc4)CC3)cc2)cc1S(=O)(=O)C(F)(F)F [AZD4320] + Cc1cc2ncnn2cc1Nc1ncc2c(n1)n(C1CCOCC1)c(=O)n2C [AZD7648] (first compound max 1 µM, 7x7, partner max 10 µM) | 0.847 | 0.352 | 0.337 | 1 | 0.214 | 0.958 |
| CN(CCO)CC[C@H](CSc1ccccc1)Nc1ccc(S(=O)(=O)NC(=O)c2ccc(N3CCC([C@@H](O)c4ccccc4-c4ccc(Cl)cc4)CC3)cc2)cc1S(=O)(=O)C(F)(F)F [AZD4320] + Cn1cnc2c(F)c(Nc3ccc(Br)cc3Cl)c(C(=O)NOCCO)cc21 [Selumetinib] (first compound max 1 µM, 7x7, partner max 3 µM) | 0.739 | 0.511 | 0.366 | 1 | 0.346 | 0.999 |
| COc1nnc2ccc(N3CCC(c4ccc(OCCN5CCN(C)C(=O)[C@H]5C)cc4)CC3)nn12 [AZD5153] + CN(CC[C@H](CSC1=CC=CC=C1)NC2=C(C=C(C=C2)S(=O)(=O)NC(=O)C3=CC=C(C=C3)N4CCC(CC4)[C@H](C5=CC=CC=C5C6=CC=C(C=C6)Cl)O)S(=O)(=O)C(F)(F)F)CCO [AZD4320] (first compound max 1 µM, 7x7, partner max 1 µM) | – | – | 0.983 | – | – | – |
| Cc1c2c(nn1C)CSCc1cc(n(C)n1)CSc1cc(c3ccccc3c1)OCCCc1c(C(=O)O)n(C)c3c-2c(Cl)ccc13 [AZD5991] + C1CN(CCC1(C(=O)N[C@@H](CCO)C2=CC=C(C=C2)Cl)N)C3=NC=NC4=C3C=CN4 [Capivasertib] (first compound max 1 µM, 7x7, partner max 3 µM) | 0.353 | 0.467 | 0.0757 | 0.811 | 0.573 | 0.42 |
| Cc1c2c(nn1C)CSCc1cc(n(C)n1)CSc1cc(c3ccccc3c1)OCCCc1c(C(=O)O)n(C)c3c-2c(Cl)ccc13 [AZD5991] + C=CCn1c(=O)c2cnc(Nc3ccc(N4CCN(C)CC4)cc3)nc2n1-c1cccc(C(C)(C)O)n1 [AZD1775] (first compound max 1 µM, partner max 1 µM) | 0.635 | 0.826 | 0.247 | 0.887 | 1 | 0.824 |
| Cc1c2c(nn1C)CSCc1cc(n(C)n1)CSc1cc(c3ccccc3c1)OCCCc1c(C(=O)O)n(C)c3c-2c(Cl)ccc13 [AZD5991] + CC1(C)CCC(CN2CCN(c3ccc(C(=O)NS(=O)(=O)c4ccc(NCC5CCOCC5)c([N+](=O)[O-])c4)c(Oc4cnc5[nH]ccc5c4)c3)CC2)=C(c2ccc(Cl)cc2)C1 [Venetoclax] (first compound max 1 µM, 7x7, partner max 1 µM) | 0.318 | 0.168 | 0.173 | 1 | 0.544 | 0.764 |
| Cc1c2c(nn1C)CSCc1cc(n(C)n1)CSc1cc(c3ccccc3c1)OCCCc1c(C(=O)O)n(C)c3c-2c(Cl)ccc13 [AZD5991] + CCN(CCO)CCCOc1ccc2c(Nc3cc(CC(=O)Nc4cccc(F)c4)[nH]n3)ncnc2c1 [AZD2811] (first compound max 1 µM, 7x7, partner max 1 µM) | 0.283 | 0.408 | 0.217 | 0.909 | 0.553 | 0.491 |
| CC(=O)c1c(C)c2cnc(Nc3ccc(N4CCNCC4)cn3)nc2n(C2CCCC2)c1=O [Palbociclib] + CN(CC[C@H](CSC1=CC=CC=C1)NC2=C(C=C(C=C2)S(=O)(=O)NC(=O)C3=CC=C(C=C3)N4CCC(CC4)[C@H](C5=CC=CC=C5C6=CC=C(C=C6)Cl)O)S(=O)(=O)C(F)(F)F)CCO [AZD4320] (first compound max 10 µM, 7x7, partner max 1 µM) | – | – | 0.298 | – | – | – |
